Drawing on patent US20110166123A1, “NOVEL COMPOSITIONS AND METHODS OF USE” (priority 2008, published 2011), this text covers EC50 for 15 molecules.

Each structure is given as a SMILES string.

This assay relates to human immunodeficiency virus type 1 (HIV-1). As to the kind of experiment: microbe, parasite or virus in culture. In kind it is cell-based. The note with it: Human immunodeficiency virus 1, HeLa, 48 h, HIV-1 luciferase reporter, HeLa cells, 48 hours after infection.
The molecule `COc1nc2c(cc1NCCc1ccccc1F)c(=O)c(C(=O)O)cn2[C@H](CO)C(C)C` [Example 20S, (S)-6-(2-fluorophenethylamino)-1-(1-hydroxy-3-methylbutan-2-yl)-7-methoxy-4-oxo-1,4-dihydro-1,8-naphthyridine-3-carboxylic acid] registered an EC50 greater than 100 nM. Under `COc1nc2c(cc1NCc1ccc(C(F)(F)F)cc1)c(=O)c(C(=O)O)cn2[C@H](CO)C(C)C` [Example 20Y, (S)-1-(1-hydroxy-3-methylbutan-2-yl)-7-methoxy-4-oxo-6-(4-(trifluoromethyl)benzylamino)-1,4-dihydro-1,8-naphthyridine-3-carboxylic acid] stands greater than 100 nM; under `Cc1nc2c(cc1Cc1cccc(Cl)c1F)c(=O)c(C(=O)O)cn2[C@H](CO)C(C)(C)C` [Example 3B, 6-(3-Chloro-2-fluorobenzyl)-1-((S)-1-hydroxymethyl-2,2-dimethyl-propyl)-7-methyl-4-oxo-1,4-dihydro-1,8-naphthyridine-3-carboxylic acid], 10 to 100 nM. The result for `COc1cc2c(cc1OCc1cccc(Cl)c1F)c(=O)c(C(=O)O)cn2[C@H](CO)C(C)(C)C` [Example 29A, (S)-6-(3-chloro-2-fluorobenzyloxy)-1-(1-hydroxy-3,3-dimethylbutan-2-yl)-7-methoxy-4-oxo-1,4-dihydroquinoline-3-carboxylic acid] reads greater than 100 nM; that for `COc1nc2c(cc1NCc1cccc(Cl)c1Cl)c(=O)c(C(=O)O)cn2[C@H](CO)C(C)C` [Example 20L, (S)-6-(2,3-dichlorobenzylamino)-1-(1-hydroxy-3-methylbutan-2-yl)-7-methoxy-4-oxo-1,4-dihydro-1,8-naphthyridine-3-carboxylic acid], greater than 100 nM; that for `CC(C)(C)[C@@H](CO)n1cc(C(=O)O)c(=O)c2cc(Cc3cccc(Cl)c3F)c(NCCO)nc21` [Example 2R], less than 10 nM.

Regarding `COc1nc2c(cc1CNc1ccc(F)cc1F)c(=O)c(C(=O)O)cn2[C@H](CO)C(C)C` [Example 12B], the EC50 was greater than 100 nM. Under `COc1nc2c(cc1NCc1ccccc1C(F)(F)F)c(=O)c(C(=O)O)cn2[C@H](CO)C(C)C` [Example 20W, (S)-1-(1-hydroxy-3-methylbutan-2-yl)-7-methoxy-4-oxo-6-(2-(trifluoromethyl)benzylamino)-1,4-dihydro-1,8-naphthyridine-3-carboxylic acid] stands greater than 100 nM; under `CC(C)Oc1nc2c(cc1Cc1cccc(Cl)c1F)c(=O)c(C(=O)O)cn2[C@H](CO)C(C)(C)C` [Example 2D], 10 to 100 nM. Under `COc1nc2c(cc1-c1ccccc1OCc1ccccc1)c(=O)c(C(=O)O)cn2[C@H](CO)C(C)C` [Example 17K] stands greater than 100 nM. Molecule `CN(C)c1nc2c(cc1Cc1cccc(Cl)c1F)c(=O)c(C(=O)O)cn2[C@H](CO)C(C)(C)C` [Example 2P] came in with an EC50 of 10 to 100 nM. In the case of `COc1cc2c(cc1OCc1c(F)cc(F)cc1F)c(=O)c(C(=O)O)cn2[C@H](CO)C(C)(C)C` [Example 29B, (S)-1-(1-hydroxy-3,3-dimethylbutan-2-yl)-7-methoxy-4-oxo-6-(2,4,6-trifluorobenzyloxy)-1,4-dihydroquinoline-3-carboxylic acid], the EC50 lay in the range of 10 to 100 nM.

As to `COc1nc2c(cc1N[C@@H](C)c1ccc(F)cc1)c(=O)c(C(=O)O)cn2[C@H](CO)C(C)C` [Example 20KK, 6-((S)-1-(4-fluorophenyl)ethylamino)-1-((S)-1-hydroxy-3-methylbutan-2-yl)-7-methoxy-4-oxo-1,4-dihydro-1,8-naphthyridine-3-carboxylic acid], the 50% effective concentration (EC50) is greater than 100 nM. In turn, `CCC[C@@H](CO)n1cc(C(=O)O)c(=O)c2cc(Cc3cccc(Cl)c3F)ncc21` [Example 5I] showed an EC50 greater than 100 nM. `O=C(O)c1cn(CCO)c2ncc(Cc3cccc(Cl)c3Cl)cc2c1=O` [Example 4E] returned a 50% effective concentration (EC50) greater than 100 nM.
